Where two headings read alike, the source gives them in different places.
Tests used:
[1] = system: A-549; assay: Inhibition of cells growth by colorimetric assay (SRB), A-549; type: cell-based; details: for GI50 / LC50 (concentration for 50% cell killing): Homo sapiens, A549, 48 h; for GI50: read-out: A-549 GI50
Outline: (§1)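 Sulforhodamine B protein-stain readout (490 nm) after 48 h drug exposure, with GI, TGI and LC parameters calculated from triplicate means. Cells seeded at 5×10^3 per well, allowed 18 h drug-free attachment; dose range 10 to 10^−8 μg/ml, vehicle DMSO/EtOH/PBS (0.5:0.5:99).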

[2] = system: SK-MEL-28; assay: Inhibition of cells growth by colorimetric assay (SRB), SK-MEL-28; type: cell-based; details: for GI50 / CC50: Homo sapiens, SK-MEL-28, 48 h; for GI50: read-out: MEL-28 GI50
Outline: as §1

[3] = system: HT-29; assay: Inhibition of cells growth by colorimetric assay (SRB), HT-29; type: cell-based; details: for GI50 / LC50 (concentration for 50% cell killing): Homo sapiens, HT-29, 48 h; for GI50: read-out: HT-29 GI50
Outline: as §1

[4] = system: SW620; assay: Inhibition of cells growth by colorimetric assay (SRB), SW620; type: cell-based; details: for LC50 / GI50: Homo sapiens; for LC50: SW-620, 48 h, read-out: SW-620 LC50; for GI50 / SW-620 TGI: 48 hours exposure; for GI50: read-out: SW-620 GI50
Procedure: (§2) 2°.—Inhibition of Cells Growth by Colorimetric Assay.
(§3) A colorimetric type of assay, using sulforhodamine B (SRB) reaction has been adapted for a quantitative measurement of cell growth and viability [following the technique described by Philip Skehan, et al. (1990), New colorimetric cytotoxicity assay for anticancer drug screening, J. Natl. Cancer Inst., 82:1107-1112]
(§4) This form of the assay employs 96 well cell culture microplates of 9 mm diameter (Faircloth, 1988; Mosmann, 1983). Most of the cell lines are obtained from American Type Culture Collection (ATCC) derived from different human cancer types.
(§5) Cells are maintained in RPMI 1640 10% FBS, supplemented with 0.1 g/l penicillin and 0.1 g/l streptomycin sulfate and then incubated at 37° C., 5% CO2 and 98% humidity. For the experiments, cells were harvested from subconfluent cultures using trypsin and resuspended in fresh medium before plating.
(§6) Cells are seeded in 96 well microtiter plates, at 5×10^3 cells per well in aliquots of 195 μl medium, and they are allowed to attach to the plate surface by growing in drug free medium for 18 hours. Afterward, samples are added in aliquots of 5 μl in a ranging from 10 to 10^−8 μg/ml, dissolved in DMSO/EtOH/PBS (0.5:0.5:99). After 48 hours exposure, the antitumor effect are measured by the SRB methodology: cells are fixed by adding 50 μl of cold 50% (wt/vol) trichloroacetic acid (TCA) and incubating for 60 minutes at 4° C. Plates are washed with deionized water and dried. One hundred μl of SRB solution (0.4% wt/vol in 1% acetic acid) is added to each microtiter well and incubated for 10 minutes at room temperature. Unbound SRB is removed by washing with 1% acetic acid. Plates are air dried and bound stain is solubilized with Tris buffer. Optical densities are read on a automated spectrophotometric plate reader at a single wavelength of 490 nm.
(§7) The values for mean+/−SD of data from triplicate wells are calculated. Some parameters for cellular responses can be calculated: GI=growth inhibition, TGI=total growth inhibition (cytostatic effect) and LC=cell killing (cytotoxic effect).
(§8) Obtained results may predict the usefulness of a certain drug as a potential cancer treatment. For this technique, compounds which show GI50 values smaller than 10 μg/ml are selected to continue with further studies. GI50's data allow to predict that not only could a drug be cystostatic, but also it could have a potential in terms of tumor reduction.

[5] = system: DU-145; assay: Inhibition of cells growth by colorimetric assay (SRB), DU-145; type: cell-based; details: for GI50 / CC50: Homo sapiens, DU-145, 48 h; for GI50: read-out: DU-145 GI50
Outline: as §1

[6] = system: MCF-7; assay: Inhibition of cells growth by colorimetric assay (SRB), MCF-7; type: cell-based; details: for CC50 / GI50: Homo sapiens; for CC50: MCF7, 48 h, read-out: MCF LC50; for GI50: MCF7, read-out: MCF GI50; for GI50 / MCF TGI: 48 hours exposure
Procedure: as §2, §3, §4, §5, §6, §7, §8

[7] = system: MDA-MB-231; assay: Inhibition of cells growth by colorimetric assay (SRB), MDA-MB-231; type: cell-based; details: for CC50 / GI50: Homo sapiens; for CC50: MDA-MB-231, 48 h, read-out: MB-231 LC50; for GI50: MDA-MB-231, read-out: MB-231 GI50; for GI50 / MB-231 TGI: 48 hours exposure
Procedure: as §2, §3, §4, §5, §6, §7, §8

[8] = system: A-498; assay: Inhibition of cells growth by colorimetric assay (SRB), A-498; type: cell-based; details: for A-498 TGI / GI50: 48 hours exposure; for LC50 / GI50: Homo sapiens; for LC50: A498, 48 h, read-out: A-498 LC50; for GI50: A498, read-out: A-498 GI50
Procedure: as §2, §3, §4, §5, §6, §7, §8

[9] = system: Liver
Source text: (§9) Toxicity was asssessed by the methods reported in Toxicology in Vitro, 15 (2001) 571-577, J. Luber Narod et al.: “Evaluation of the use of in vitro methodolodies as tools for screening new compounds for potential in vivo toxicity”.

[10] = system: Heart
Source text: as §9

[11] = system: Myelo
Source text: as §9

[12] = system: Skeletal
Source text: as §9

[13] = system: Kidney
Source text: as §9

SMILES: COc1cc2c(cc1O)CCN[C@]21CS[C@@H]2c3c(OC(C)=O)c(C)c4c(c3[C@H](COC1=O)N1C2[C@H]2c3c(cc(C)c(OC)c3OC(=O)OC(C)(C)C)C[C@@H]([C@@H]1O)N2C)OCO4 (some centres unmarked) [Compound 97]
- A-549 TGI ([1]; A-549, SRB, 48 hours exposure): 9.28E-10
- GI50 ([1]; A-549, SRB, 48 hours exposure): 348 pM
- LC50 (concentration for 50% cell killing) ([1]; read-out: A-549 LC50, A-549, SRB, 48 hours exposure): 3480 pM
- GI50 ([2]; MEL-28, SRB, 48 hours exposure): 348 pM
- CC50 ([2]; read-out: MEL-28 LC50, MEL-28, SRB, 48 hours exposure): 3480 pM
- MEL-28 TGI ([2]; MEL-28, SRB, 48 hours exposure): 9.28E-10
- HT-29 TGI ([3]; HT-29, SRB, 48 hours exposure): 2.32E-09
- GI50 [3]: 928 pM
- LC50 (concentration for 50% cell killing) ([3]; read-out: HT-29 LC50, HT-29, SRB, 48 hours exposure): 9280 pM
- LC50 [4]: 9280 pM
- GI50 ([4]; SW-620, SRB): 580 pM
- SW-620 TGI ([4]; SW-620, SRB): 2.32E-09
- DU-145 TGI ([5]; DU-145, SRB, 48 hours exposure): 3.48E-10
- GI50 ([5]; DU-145, SRB, 48 hours exposure): 232 pM
- CC50 ([5]; read-out: DU-145 LC50, DU-145, SRB, 48 hours exposure): 928 pM
- CC50 [6]: 11600 pM
- GI50 ([6]; MCF, SRB): 1160 pM
- MCF TGI ([6]; MCF, SRB): 3.48E-09
- CC50 [7]: 34800 pM
- GI50 ([7]; MB-231, SRB): 348 pM
- MB-231 TGI ([7]; MB-231, SRB): 6.96E-10
- A-498 TGI ([8]; A-498, SRB): 2.32E-09
- LC50 [8]: 9280 pM
- GI50 ([8]; A-498, SRB): 580 pM
- Toxicity Data Liver [9]: 1.57E-08
- Toxicity Data Heart [10]: 9.63E-08
- Toxicity Data Myelo [11]: 1.77E-08
- Toxicity Data Skeletal [12]: 4.62E-09
- Toxicity Data Kidney [13]: 1.43E-08

SMILES: COc1cc2c(cc1O)CCN(C)[C@]21CS[C@@H]2c3c(OC(C)=O)c(C)c4c(c3[C@H](COC1=O)N1C2[C@@H]2N[C@@H](Cc3cc(C)c(OC)c(O)c32)[C@@H]1C#N)OCO4 (some centres unmarked) [Compound 209]
- GI50 ([1]; SRB assay, 48 hours exposure): 90.9 pM
- LC50 (concentration for 50% cell killing) ([1]; read-out: A-549 LC50, SRB assay, 48 hours exposure): 1170 pM
- A-549 TGI ([1]; SRB assay, 48 hours exposure): 3.90E-10
- GI50 ([2]; SRB assay, 48 hours exposure): 64.9 pM
- CC50 ([2]; read-out: MEL-28 LC50, SRB assay, 48 hours exposure): 1300 pM
- MEL-28 TGI ([2]; SRB assay, 48 hours exposure): 2.60E-10
- GI50 ([3]; SRB assay, 48 hours exposure): 77.9 pM
- LC50 (concentration for 50% cell killing) ([3]; read-out: HT-29 LC50, SRB assay, 48 hours exposure): 1170 pM
- HT-29 TGI ([3]; SRB assay, 48 hours exposure): 3.90E-10
- LC50 [4]: 1300 pM
- GI50 ([4]; SW-620, SRB assay): 77.9 pM
- SW-620 TGI ([4]; SRB assay): 3.90E-10
- GI50 ([5]; SRB assay, 48 hours exposure): 13 pM
- CC50 ([5]; read-out: DU-145 LC50, SRB assay, 48 hours exposure): 130 pM
- DU-145 TGI ([5]; SRB assay, 48 hours exposure): 3.90E-11
- CC50 [6]: 5190 pM
- GI50 ([6]; SRB assay): 260 pM
- MCF TGI ([6]; SRB assay): 7.79E-10
- CC50 [7]: 1300 pM
- GI50 ([7]; SRB assay): 13 pM
- MB-231 TGI ([7]; SRB assay): 2.60E-10
- LC50 [8]: 1300 pM
- GI50 ([8]; SRB assay): 130 pM
- A-498 TGI ([8]; SRB assay): 3.90E-10

— patent US7759345B2, “Antitumoral derivatives of ET-743” (priority 2001, dated 2010)
